# According to patent US7482027B2, “Composition for the prevention or treatment of diseases associated with angiogenesis” (AngioLab, Inc., priority 2005, dated 2009):
# Test system: HUVEC tube formation
# Assay: HUVEC tube formation inhibition assay
# Type: cell-based, Human
# Parameters: key to Tube formation inhibition: −: no inhibition of tube formation; +/−: rare inhibition of tube formation; +: light inhibition of tube formation and slight tube cleavage; ++: significant inhibition of tube formation and heavy tube cleavage; +++: no tube formation
# Details: 50 μg/ml; for Tube formation inhibition: TABLE 2, HUVEC on Matrigel, 18 hours; for Inhibition of HUVEC tube formation (in words): text summary of TABLES 1 and 2
# Description: Human umbilical vein endothelial cells (HUVECs) were isolated from freshly obtained cords after cesarean section according to Grants' method (Grants D S et al., Cell, 58, pp 923-943, 1989). The isolated HUVECs were grown in culture media comprising M-199 (Gibco BRL, 31100-035), 10% FBS, 50 μg/ml ECGS (Endothelial cell growth supplement, Sigma E2795), and 50 μg/ml heparin (Sigma H3149).
# HUVECs isolated in REFERENCE EXAMPLE 1 were cultured within passage 5, and then were divided into 20,000 to 50,000 cells per well of 48 well plate coated with, Matrigel (BD Biosciences, Bedford, Mass.). Crude extracts, non-polar solvent extracts, or fractions of C. officinale of EXAMPLES 1 to 4 were added to the above HUVEC culture well at the concentration of 50 μg/ml, respectively, and DMSO was added as a control. They were grown with culture media of the above REFERENCE EXAMPLE 1.
# After HUVECs were further incubated at 37° C. for 18 hours, tube formation was observed using microscope. The results were summarized in TABLES 1 and 2 (−: no inhibition of tube formation, +/− rare inhibition of tube formation, +: light inhibition of tube formation and slight tube cleavage, ++: significant inhibition of tube formation and heavy tube cleavage, +++: no tube formation).
Structure (SMILES),Tube formation inhibition,Inhibition of HUVEC tube formation (in words)
"CCCCC1OC(=O)c2c(O)cccc21 (single isomer, unassigned) [AS44-C-2-C-b-III, 3-butyl-7-hydroxyphthalide]",+++,strongly inhibited HUVEC tube formation
"C=CC(O)C#CC#CC(O)C=C (single isomer, unassigned) [AS44-C-2-D-b-IV, 1,9-decadiene-4,6-diyne-3,8-diol]",+++,strongly inhibited HUVEC tube formation
